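Assay format: 96-well plates, 48-hour exposure. Definition used: TGI = concentration required for complete inhibition of growth.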
How the values were obtained:
Test in all cases: NCI tumour cell line growth inhibition, 48 h
786-0 renal = tested on: 786-0 renal
A498 renal = tested on: A498 renal
A549 NSCLC = tested on: A549 NSCLC
ACHN renal = tested on: ACHN renal
CAKI-1 renal = tested on: CAKI-1 renal
CCRF-CEM leukemia = tested on: CCRF-CEM leukemia
COLO 205 colon = tested on: COLO 205 colon
DLD-1 colon = tested on: DLD-1 colon
DMS 114 small cell lung = tested on: DMS 114 small cell lung
DMS 273 small cell lung = tested on: DMS 273 small cell lung
EKVX NSCLC = tested on: EKVX NSCLC
HCC-2998 colon = tested on: HCC-2998 colon
HCT-116 colon = tested on: HCT-116 colon
HCT-15 colon = tested on: HCT-15 colon
HL-60(TB) leukemia = tested on: HL-60(TB) leukemia
HOP-18 NSCLC = tested on: HOP-18 NSCLC
HOP-62 NSCLC = tested on: HOP-62 NSCLC
HOP-92 NSCLC = tested on: HOP-92 NSCLC
HT29 colon = tested on: HT29 colon
IGROV1 ovarian = tested on: IGROV1 ovarian
K-562 leukemia = tested on: K-562 leukemia
KM12 colon = tested on: KM12 colon
KM20L2 colon = tested on: KM20L2 colon
LXFL 529 NSCLC = tested on: LXFL 529 NSCLC
M14 melanoma = tested on: M14 melanoma
M19-MEL melanoma = tested on: M19-MEL melanoma
MOLT-4 leukemia = tested on: MOLT-4 leukemia
NCI-H23 lung = tested on: NCI-H23 lung
NCI-H460 lung = tested on: NCI-H460 lung
OVCAR-3 ovarian = tested on: OVCAR-3 ovarian
OVCAR-4 ovarian = tested on: OVCAR-4 ovarian
OVCAR-8 ovarian = tested on: OVCAR-8 ovarian
RPMI-8226 leukemia = tested on: RPMI-8226 leukemia
RXF 393 renal = tested on: RXF 393 renal
RXF-631 renal = tested on: RXF-631 renal
SF-295 CNS = tested on: SF-295 CNS
SF-539 CNS = tested on: SF-539 CNS
SK-MEL-2 melanoma = tested on: SK-MEL-2 melanoma
SK-MEL-28 melanoma = tested on: SK-MEL-28 melanoma
SK-OV-3 ovarian = tested on: SK-OV-3 ovarian
SN12C renal = tested on: SN12C renal
SNB-19 CNS = tested on: SNB-19 CNS
SNB-75 CNS = tested on: SNB-75 CNS
SNB-78 CNS = tested on: SNB-78 CNS
SR leukemia = tested on: SR leukemia
SW-620 colon = tested on: SW-620 colon
U251 CNS = tested on: U251 CNS
UACC-257 melanoma = tested on: UACC-257 melanoma
UACC-62 melanoma = tested on: UACC-62 melanoma
UO-31 renal = tested on: UO-31 renal
XF 498 CNS = tested on: XF 498 CNS
LOX IMVI melanoma = tested on: LOX IMVI melanoma
MALME-3M melanoma = tested on: MALME-3M melanoma
OVCAR-5 ovarian = tested on: OVCAR-5 ovarian
SF-268 CNS = tested on: SF-268 CNS
SK-MEL-5 melanoma = tested on: SK-MEL-5 melanoma
TK-10 renal = tested on: TK-10 renal
NCI-H226 lung = tested on: NCI-H226 lung
NCI-H522 lung = tested on: NCI-H522 lung

Work on `COc1c(CC(=O)c2ccccc2)c2ccccc2n1C(C)=O` yielded a TGI (786-0 renal) greater than 100 µM, a TGI (A498 renal) greater than 100 µM and a TGI (A549 NSCLC) greater than 100 µM. It also gave a TGI (ACHN renal) greater than 100 µM, a TGI (CAKI-1 renal) greater than 100 µM and a TGI (CCRF-CEM leukemia) greater than 100 µM. For the same compound, the TGI (COLO 205 colon) was greater than 100 µM, the TGI (DLD-1 colon) was greater than 100 µM and the TGI (DMS 114 small cell lung) was greater than 100 µM. The TGI (DMS 273 small cell lung) was greater than 100 µM, the TGI (EKVX NSCLC) was greater than 100 µM and the TGI (HCC-2998 colon) was greater than 100 µM. The TGI (HCT-116 colon) was greater than 100 µM, the TGI (HCT-15 colon) was greater than 100 µM and the TGI (HL-60(TB) leukemia) was greater than 100 µM. The TGI (HOP-18 NSCLC) was greater than 100 µM, the TGI (HOP-62 NSCLC) was greater than 100 µM and the TGI (HOP-92 NSCLC) was greater than 100 µM. It also gave a TGI (HT29 colon) greater than 100 µM, a TGI (IGROV1 ovarian) greater than 100 µM and a TGI (K-562 leukemia) greater than 100 µM. For the same compound, the TGI (KM12 colon) was greater than 100 µM, the TGI (KM20L2 colon) was greater than 100 µM and the TGI (LXFL 529 NSCLC) was greater than 100 µM. The TGI (M14 melanoma) was greater than 100 µM, the TGI (M19-MEL melanoma) was greater than 100 µM and the TGI (MOLT-4 leukemia) was greater than 100 µM. It also gave a TGI (NCI-H23 lung) greater than 100 µM, a TGI (NCI-H460 lung) greater than 100 µM and a TGI (OVCAR-3 ovarian) greater than 100 µM. For the same compound, the TGI (OVCAR-4 ovarian) was greater than 100 µM, the TGI (OVCAR-8 ovarian) was greater than 100 µM and the TGI (RPMI-8226 leukemia) was greater than 100 µM. It also gave a TGI (RXF 393 renal) greater than 100 µM, a TGI (RXF-631 renal) greater than 100 µM and a TGI (SF-295 CNS) greater than 100 µM. For the same compound, the TGI (SF-539 CNS) was greater than 100 µM, the TGI (SK-MEL-2 melanoma) was greater than 100 µM and the TGI (SK-MEL-28 melanoma) was greater than 100 µM. For the same compound, the TGI (SK-OV-3 ovarian) was greater than 100 µM, the TGI (SN12C renal) was greater than 100 µM and the TGI (SNB-19 CNS) was greater than 100 µM. The TGI (SNB-75 CNS) was greater than 100 µM, the TGI (SNB-78 CNS) was greater than 100 µM and the TGI (SR leukemia) was greater than 100 µM. It also gave a TGI (SW-620 colon) greater than 100 µM, a TGI (U251 CNS) greater than 100 µM and a TGI (UACC-257 melanoma) greater than 100 µM. For the same compound, the TGI (UACC-62 melanoma) was greater than 100 µM, the TGI (UO-31 renal) was greater than 100 µM and the TGI (XF 498 CNS) was greater than 100 µM.
In the case of `CCN(C1=CC(=O)NC2CCCCN12)c1ccccc1` (stereo unspecified), the TGI (786-0 renal) is reported as greater than 100 µM, the TGI (A498 renal) is reported as greater than 100 µM and the TGI (A549 NSCLC) is reported as greater than 100 µM. For the same compound, the TGI (ACHN renal) was greater than 100 µM, the TGI (CAKI-1 renal) was greater than 100 µM and the TGI (CCRF-CEM leukemia) was greater than 100 µM. The TGI (COLO 205 colon) was greater than 100 µM, the TGI (DLD-1 colon) was greater than 100 µM and the TGI (DMS 114 small cell lung) was greater than 100 µM. It also gave a TGI (DMS 273 small cell lung) greater than 100 µM, a TGI (EKVX NSCLC) greater than 100 µM and a TGI (HCC-2998 colon) greater than 100 µM. For the same compound, the TGI (HCT-116 colon) was greater than 100 µM, the TGI (HCT-15 colon) was greater than 100 µM and the TGI (HOP-18 NSCLC) was greater than 100 µM. The TGI (HOP-62 NSCLC) was greater than 100 µM, the TGI (HT29 colon) was greater than 100 µM and the TGI (IGROV1 ovarian) was greater than 100 µM. It also gave a TGI (K-562 leukemia) greater than 100 µM, a TGI (KM12 colon) greater than 100 µM and a TGI (KM20L2 colon) greater than 100 µM. It also gave a TGI (LOX IMVI melanoma) greater than 100 µM, a TGI (LXFL 529 NSCLC) greater than 100 µM and a TGI (M14 melanoma) greater than 100 µM. For the same compound, the TGI (M19-MEL melanoma) was greater than 100 µM, the TGI (MALME-3M melanoma) was greater than 100 µM and the TGI (MOLT-4 leukemia) was greater than 100 µM. For the same compound, the TGI (NCI-H23 lung) was greater than 100 µM, the TGI (NCI-H460 lung) was greater than 100 µM and the TGI (OVCAR-3 ovarian) was greater than 100 µM. For the same compound, the TGI (OVCAR-4 ovarian) was greater than 100 µM, the TGI (OVCAR-5 ovarian) was greater than 100 µM and the TGI (OVCAR-8 ovarian) was greater than 100 µM. For the same compound, the TGI (RPMI-8226 leukemia) was greater than 100 µM, the TGI (RXF 393 renal) was greater than 100 µM and the TGI (RXF-631 renal) was greater than 100 µM. For the same compound, the TGI (SF-268 CNS) was greater than 100 µM, the TGI (SF-295 CNS) was greater than 100 µM and the TGI (SF-539 CNS) was greater than 100 µM. It also gave a TGI (SK-MEL-2 melanoma) greater than 100 µM, a TGI (SK-MEL-28 melanoma) greater than 100 µM and a TGI (SK-MEL-5 melanoma) greater than 100 µM. The TGI (SK-OV-3 ovarian) was greater than 100 µM, the TGI (SN12C renal) was greater than 100 µM and the TGI (SNB-19 CNS) was greater than 100 µM. For the same compound, the TGI (SNB-75 CNS) was greater than 100 µM, the TGI (SNB-78 CNS) was greater than 100 µM and the TGI (SW-620 colon) was greater than 100 µM. For the same compound, the TGI (TK-10 renal) was greater than 100 µM, the TGI (U251 CNS) was greater than 100 µM and the TGI (UACC-257 melanoma) was greater than 100 µM. For the same compound, the TGI (UACC-62 melanoma) was greater than 100 µM and the TGI (XF 498 CNS) was greater than 100 µM.
With `C[C@]12CCc3nonc3C1CC[C@@H]1C2CC[C@]2(C)C(=O)CCC12` (stereo partly specified) the TGI (786-0 renal) was greater than 100 µM, the TGI (A498 renal) was 78.8 µM and the TGI (A549 NSCLC) was 82.5 µM. It also gave a TGI (ACHN renal) greater than 100 µM, a TGI (CAKI-1 renal) of 49.2 µM and a TGI (CCRF-CEM leukemia) of 57.8 µM. It also gave a TGI (COLO 205 colon) of 56.3 µM, a TGI (DLD-1 colon) greater than 100 µM and a TGI (DMS 114 small cell lung) of 60 µM. The TGI (DMS 273 small cell lung) was 51.1 µM, the TGI (EKVX NSCLC) was 69.4 µM and the TGI (HCC-2998 colon) was 71.2 µM. For the same compound, the TGI (HCT-15 colon) was greater than 100 µM, the TGI (HL-60(TB) leukemia) was 39.2 µM and the TGI (HOP-18 NSCLC) was greater than 100 µM. The TGI (HOP-62 NSCLC) was greater than 100 µM, the TGI (HOP-92 NSCLC) was 55.3 µM and the TGI (HT29 colon) was 37.9 µM. For the same compound, the TGI (IGROV1 ovarian) was greater than 100 µM, the TGI (K-562 leukemia) was greater than 100 µM and the TGI (KM12 colon) was 37.4 µM. The TGI (KM20L2 colon) was 82.4 µM, the TGI (LOX IMVI melanoma) was 47.6 µM and the TGI (LXFL 529 NSCLC) was greater than 100 µM. It also gave a TGI (M14 melanoma) greater than 100 µM, a TGI (M19-MEL melanoma) of 57.2 µM and a TGI (MALME-3M melanoma) of 65.7 µM. For the same compound, the TGI (MOLT-4 leukemia) was 61.6 µM, the TGI (NCI-H226 lung) was greater than 100 µM and the TGI (NCI-H23 lung) was greater than 100 µM. For the same compound, the TGI (NCI-H460 lung) was greater than 100 µM, the TGI (NCI-H522 lung) was 72.2 µM and the TGI (OVCAR-3 ovarian) was 58.7 µM. For the same compound, the TGI (OVCAR-4 ovarian) was greater than 100 µM, the TGI (OVCAR-5 ovarian) was greater than 100 µM and the TGI (OVCAR-8 ovarian) was greater than 100 µM. The TGI (RPMI-8226 leukemia) was 46.5 µM, the TGI (RXF 393 renal) was greater than 100 µM and the TGI (RXF-631 renal) was greater than 100 µM. The TGI (SF-268 CNS) was greater than 100 µM, the TGI (SF-295 CNS) was 83.9 µM and the TGI (SF-539 CNS) was 49.8 µM. It also gave a TGI (SK-MEL-2 melanoma) of 46.8 µM, a TGI (SK-MEL-28 melanoma) greater than 10 µM and a TGI (SK-MEL-5 melanoma) of 34.2 µM. The TGI (SK-OV-3 ovarian) was greater than 100 µM, the TGI (SN12C renal) was greater than 100 µM and the TGI (SNB-19 CNS) was greater than 100 µM. It also gave a TGI (SNB-75 CNS) of 94.5 µM, a TGI (SNB-78 CNS) greater than 100 µM and a TGI (SW-620 colon) greater than 100 µM. The TGI (TK-10 renal) was greater than 10 µM, the TGI (U251 CNS) was greater than 100 µM and the TGI (UACC-257 melanoma) was greater than 10 µM. It also gave a TGI (UACC-62 melanoma) of 68.3 µM, a TGI (UO-31 renal) of 68.2 µM and a TGI (XF 498 CNS) of 45 µM.

— PubChem BioAssay (NCI)
